Reference: patent US20260365653A1, “IRREVERSIBLE MUTEGFR INHIBITORS” (Bayer Aktiengesellschaft, priority 2022, published 2026)

Tests used:
BA/F3 (insSVD) cells = test: Ba/F3-EGFR-insSVD cell survival assay (Cell Titer-Glo); assay type: cell-based; conditions: Mus musculus, BaF3, 48 h, Table 3a, cell survival, Cell Titer-Glo, with 10 ng/ml EGF, without IL-3
Outline: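 Ba/F3 cells stably expressing retroviral EGFR-insSVD or insSVD T790M, grown without IL-3 on 10 ng/ml EGF, 4000 cells/well. Compound pinned in, 48 h at 37° C. Viability by CellTiter-Glo luminescence.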

[1] = target: T1, mutEGFR (D770_N771insNPG, T790) (Homo sapiens, UniProt P00533, INS770NPG/T790M); test: mutEGFR (D770_N771insNPG, T790) kinase assay; assay type: biochemical; conditions: Table 2a, D770_N771insNPG
T1 construct: exact insNPG construct not described; in-house EGFR proteins were N-terminal GST fusions from baculovirus/insect cells (borders R669-A1210 given only for WT, insSVD, insASV)
T1 sequence (P00533 with tags, fused parts or gaps INS770NPG/T790M limits assumed): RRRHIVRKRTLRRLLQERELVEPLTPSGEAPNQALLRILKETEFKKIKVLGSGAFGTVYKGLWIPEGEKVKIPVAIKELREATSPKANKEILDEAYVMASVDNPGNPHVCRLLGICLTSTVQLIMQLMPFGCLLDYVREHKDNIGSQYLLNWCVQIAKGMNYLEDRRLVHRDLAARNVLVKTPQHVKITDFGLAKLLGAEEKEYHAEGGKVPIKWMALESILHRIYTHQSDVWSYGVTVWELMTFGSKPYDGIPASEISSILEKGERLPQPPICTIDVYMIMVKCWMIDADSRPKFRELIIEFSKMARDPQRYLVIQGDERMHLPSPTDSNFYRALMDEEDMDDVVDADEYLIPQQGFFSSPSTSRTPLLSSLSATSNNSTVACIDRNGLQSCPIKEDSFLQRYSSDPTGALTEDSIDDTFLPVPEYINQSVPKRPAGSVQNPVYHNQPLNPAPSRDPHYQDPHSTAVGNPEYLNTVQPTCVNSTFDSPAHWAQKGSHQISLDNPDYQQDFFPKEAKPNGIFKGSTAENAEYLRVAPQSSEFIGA
From the text: The different EGFR proteins used in the biochemical kinase activity inhibition assays were generated inhouse by expression in insect cells using Baculo Virus system and subsequent purification as described in the following paragraphs.
The cDNAs encoding the various protein sequences from human EGFR human (P00533) were optimized for expression in eukaryotic cells and synthesized by the GeneArt Technology at Life Technologies.

[2] = target: T2, mutEGFR (D770_N771insSVD) (Homo sapiens, UniProt P00533, DUP768-770); test: Exon20-Mutant-EGFR (D770_N771insSVD) kinase assay (TR-FRET); assay type: biochemical; conditions: mutEGFR (D770_N771insSVD) kinase assay IC50, Table 2a; D770_N771insSVD; 2 mM ATP
T2 construct: GST-EGFR #3 (SVD between D770 and N771); made in house; host or cells: Sf9 insect cells (baculovirus)
T2 sequence (P00533 with tags, fused parts or gaps DUP768-770): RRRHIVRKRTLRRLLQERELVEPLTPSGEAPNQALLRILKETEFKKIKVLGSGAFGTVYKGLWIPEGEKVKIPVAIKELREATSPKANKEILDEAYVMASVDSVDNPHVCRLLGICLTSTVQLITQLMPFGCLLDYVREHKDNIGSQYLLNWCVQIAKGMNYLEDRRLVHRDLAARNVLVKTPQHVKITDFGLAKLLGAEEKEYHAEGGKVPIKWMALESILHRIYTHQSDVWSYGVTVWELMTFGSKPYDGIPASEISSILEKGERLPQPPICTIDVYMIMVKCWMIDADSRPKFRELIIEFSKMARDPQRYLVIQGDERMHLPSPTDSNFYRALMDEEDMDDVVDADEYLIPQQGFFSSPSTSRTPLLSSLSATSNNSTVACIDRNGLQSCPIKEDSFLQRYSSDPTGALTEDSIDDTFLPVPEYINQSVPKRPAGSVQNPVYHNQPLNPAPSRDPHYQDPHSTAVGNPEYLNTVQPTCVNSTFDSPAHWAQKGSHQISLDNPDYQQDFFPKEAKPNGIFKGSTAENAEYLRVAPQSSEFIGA

IC50 [1] [nM] | IC50 [2] [nM] | Compound | IC50 (BA/F3 (insSVD) cells) [nM]
4.74 | 1.1 | C=CC(=O)N1CCn2nc(-c3ccccc3F)c(-c3ccncc3)c2C1 [Example 136, 1-[2-(2-fluorophenyl)-3-(pyridin-4-yl)-6,7-dihydropyrazolo[1,5-a]pyrazin-5(4H)-yl]prop-2-en-1-one] | 68.3
10.8 | 1.6 | C=CC(=O)N1CCn2nc(-c3ccccc3Cl)c(-c3ccncc3)c2C1 [Example 137, 1-[2-(2-chlorophenyl)-3-(pyridin-4-yl)-6,7-dihydropyrazolo[1,5-a]pyrazin-5(4H)-yl]prop-2-en-1-one] | 144
2.93 | 0.981 | C=CC(=O)N1CCn2nc(-c3ccc(C)cc3)c(-c3ccncc3)c2C1 [Example 138, 1-[2-(4-methylphenyl)-3-(pyridin-4-yl)-6,7-dihydropyrazolo[1,5-a]pyrazin-5(4H)-yl]prop-2-en-1-one] | 23.2
1.38 | 0.841 | C=CC(=O)N1CCn2nc(-c3cccc(C)c3)c(-c3ccncc3)c2C1 [Example 139, 1-[2-(3-methylphenyl)-3-(pyridin-4-yl)-6,7-dihydropyrazolo[1,5-a]pyrazin-5(4H)-yl]prop-2-en-1-one] | 25.9
3.08 | 0.812 | C=CC(=O)N1CCn2nc(-c3ccc(CC)cc3)c(-c3ccncc3)c2C1 [Example 140, 1-[2-(4-ethylphenyl)-3-(pyridin-4-yl)-6,7-dihydropyrazolo[1,5-a]pyrazin-5(4H)-yl]prop-2-en-1-one] | 51.4
19.7 | 32.4 | C=CC(=O)N1CCn2nc(-c3cccc(C#N)c3)c(-c3ccncc3)c2C1 [Example 141, 3-[5-(prop-2-enoyl)-3-(pyridin-4-yl)-4,5,6,7-tetrahydropyrazolo[1,5-a]pyrazin-2-yl]benzonitrile] | 177
2.83 | 0.739 | C=CC(=O)N1CCn2nc(-c3ccc(OC)cc3F)c(-c3ccncc3)c2C1 [Example 142, 1-[2-(2-fluoro-4-methoxyphenyl)-3-(pyridin-4-yl)-6,7-dihydropyrazolo[1,5-a]pyrazin-5(4H)-yl]prop-2-en-1-one] | 53
71.9 | 11.5 | C=CC(=O)N1CCn2nc(-c3ccc(SC(F)(F)F)cc3)c(-c3ccncc3)c2C1 [Example 143, 1-[3-(pyridin-4-yl)-2-{4-[(trifluoromethyl)sulfanyl]phenyl}-6,7-dihydropyrazolo[1,5-a]pyrazin-5(4H)-yl]prop-2-en-1-one] | 673
31 | 8.69 | CN(C)C/C=C/C(=O)N1CCn2nc(-c3ccc(OC(F)F)cc3)c(-c3ccncc3)c2C1 [Example 144, (2E)-1-{2-[4-(difluoromethoxy)phenyl]-3-(pyridin-4-yl)-6,7-dihydropyrazolo[1,5-a]pyrazin-5(4H)-yl}-4-(dimethylamino)but-2-en-1-one] | 1490
60.4 | 9.01 | CN(C)C/C=C/C(=O)N1CCn2nc(-c3ccc(OC(F)(F)F)cc3)c(-c3ccncc3)c2C1 [Example 145, (2E)-4-(dimethylamino)-1-[3-(pyridin-4-yl)-2-[4-(trifluoromethoxy)phenyl]-6,7-dihydropyrazolo[1,5-a]pyrazin-5(4H)-yl]but-2-en-1-one] | 607
1170 | 680 | C#Cc1ccc(-c2nn3c(c2-c2ccncc2)CN(C(=O)/C=C/CN(C)C)CC3)cc1 [Example 146, (2E)-4-(dimethylamino)-1-[2-(4-ethynylphenyl)-3-(pyridin-4-yl)-6,7-dihydropyrazolo[1,5-a]pyrazin-5(4H)-yl]but-2-en-1-one] | 4680
201 | 36 | CCOc1ccc(-c2nn3c(c2-c2ccncc2)CN(C(=O)/C=C/CN(C)C)CC3)cc1 [Example 147, (2E)-4-(dimethylamino)-1-[2-(4-ethoxyphenyl)-3-(pyridin-4-yl)-6,7-dihydropyrazolo[1,5-a]pyrazin-5(4H)-yl]but-2-en-1-one] | 2940
9.1 | 1.91 | CN(C)C/C=C/C(=O)N1CCn2nc(-c3ccc(C(F)F)cc3)c(-c3ccncc3)c2C1 [Example 148, (2E)-1-{2-[4-(difluoromethyl)phenyl]-3-(pyridin-4-yl)-6,7-dihydropyrazolo[1,5-a]pyrazin-5(4H)-yl}-4-(dimethylamino)but-2-en-1-one] | 387
2.59 | 1.54 | CN(C)C/C=C/C(=O)N1CCn2nc(-c3cc(Cl)ccc3F)c(-c3ccncc3)c2C1 [Example 149, (2E)-1-[2-(5-chloro-2-fluorophenyl)-3-(pyridin-4-yl)-6,7-dihydropyrazolo[1,5-a]pyrazin-5(4H)-yl]-4-(dimethylamino)but-2-en-1-one] | 200
1.05 | 0.764 | CN(C)C/C=C/C(=O)N1CCn2nc(-c3cccc(Cl)c3)c(-c3ccncc3)c2C1 [Example 150, (2E)-1-[2-(3-chlorophenyl)-3-(pyridin-4-yl)-6,7-dihydropyrazolo[1,5-a]pyrazin-5(4H)-yl]-4-(dimethylamino)but-2-en-1-one] | 54.3
12.1 | 3.2 | CN(C)C/C=C/C(=O)N1CCn2nc(-c3ccc(C(F)(F)F)c(F)c3)c(-c3ccncc3)c2C1 [Example 151, (2E)-4-(dimethylamino)-1-{2-[3-fluoro-4-(trifluoromethyl)phenyl]-3-(pyridin-4-yl)-6,7-dihydropyrazolo[1,5-a]pyrazin-5(4H)-yl}but-2-en-1-one] | 405
4.55 | 1.05 | CN(C)C/C=C/C(=O)N1CCn2nc(-c3ccc(C(F)(F)F)cc3F)c(-c3ccncc3)c2C1 [Example 152, (2E)-4-(dimethylamino)-1-{2-[2-fluoro-4-(trifluoromethyl)phenyl]-3-(pyridin-4-yl)-6,7-dihydropyrazolo[1,5-a]pyrazin-5(4H)-yl}but-2-en-1-one] | 257
9.91 | 2.29 | CN(C)C/C=C/C(=O)N1CCn2nc(-c3ccccc3F)c(-c3ccncc3)c2C1 [Example 153, (2E)-4-(dimethylamino)-1-[2-(2-fluorophenyl)-3-(pyridin-4-yl)-6,7-dihydropyrazolo[1,5-a]pyrazin-5(4H)-yl]but-2-en-1-one] | 557
27.5 | 3.48 | CN(C)C/C=C/C(=O)N1CCn2nc(-c3ccccc3Cl)c(-c3ccncc3)c2C1 [Example 154, (2E)-1-[2-(2-chlorophenyl)-3-(pyridin-4-yl)-6,7-dihydropyrazolo[1,5-a]pyrazin-5(4H)-yl]-4-(dimethylamino)but-2-en-1-one] | 2850
5.24 | 6.43 | COc1cccc(-c2nn3c(c2-c2ccncc2)CN(C(=O)/C=C/CN(C)C)CC3)c1 [Example 155, (2E)-4-(dimethylamino)-1-[2-(3-methoxyphenyl)-3-(pyridin-4-yl)-6,7-dihydropyrazolo[1,5-a]pyrazin-5(4H)-yl]but-2-en-1-one] | 1050
4.64 | 1.45 | Cc1ccc(-c2nn3c(c2-c2ccncc2)CN(C(=O)/C=C/CN(C)C)CC3)cc1 [Example 156, (2E)-4-(dimethylamino)-1-[2-(4-methylphenyl)-3-(pyridin-4-yl)-6,7-dihydropyrazolo[1,5-a]pyrazin-5(4H)-yl]but-2-en-1-one] | 98.2
